Test system: NIH/3T3 cell line
Assay: Collagen type 1 immunofluorescence in NIH/3T3 cells (Incucyte)
Assay type: cell-based, mouse
Experimental: Embryonic mouse fibroblast NIH/3T3 cell line (ATCC) were seeded at a concentration of 50*10^3 cells/well on 96 well glass bottom plate (P96-1.5H-N, Cellvis) for the immunofluorescence experiment and on cell culture microplate, 96 well, PS, F-Bottom (655090, greiner) for the viability experiment. The cells were cultured with Dulbecco's modified Eagle's medium (DMEM) supplemented with 10% fetal calf serum, 1% Penicillin-Streptomycin solution and 1% L-glutamine (All purchased from Rhenium). At 24 hours post seeding, cells were treated for another 48 hours by replacing them with the cell medium supplemented with a serial dilution (5-0.02 μM, factor dilution of 2) of the ML228, Daprodustat, Enarodustat, Molidustat, Vadadustat or Roxadustat molecules dissolved in DMSO. The final DMSO concentration in the cell medium was 0.01%. Cells were maintained in an incubator at 37° C. in a humidified atmosphere containing 5% CO2.
At 48 hours post treatment with either Daprodustat, Enarodustat, Molidustat, Vadadustat or Roxadustat, cells were fixed for 10 minutes together with their media with 8% paraformaldehyde (PFA, Electron Microscopy Sciences) dissolved in phosphate-buffered saline (PBS, Invitrogen) to a final concentration of 4% PFA, without any wash to avoid cells detachment from the glass. Cells were briefly washed four times with ice-cold PBS to remove the PFA and kept overnight at 4° C. The following day, a blocking solution which contains 1.5% Bovine Serum Albumin (Sigma Aldrich) dissolved in PBS was applied for 30 minutes, followed by an overnight incubation at 4° C. with recombinant rabbit anti-mouse Collagen-I 1° antibody (primary Ab) [EPR24331-53] (ab270993, Abcam), dissolved in the blocking solution (1:1000 dilution). The following day, cells were washed for 3 times with PBS (5 minutes each), followed by immunostaining with goat anti-rabbit IgG H&L (Alexa Fluor® 488) 2° antibody (secondary Ab) (ab150077, Abcam) dissolved in blocking solution (1:1000 dilution). Cells were washed again for 3 times with PBS (5 minutes each), stained for 30 minutes with DRAQ5™ (ab108410, Abcam) for nuclei staining dissolved in PBS (1:1000 dilution), and washed once again with PBS. For the ML228 experiment, cells were washed with PBS before applying 4% PFA dissolved in PBS. Then, fixed cells were additionally permeabilized with 0.2% Triton™ X-100 (Merck) dissolved in PBS, additionally stained with Phalloidin-Atto 594 (51927, Sigma Aldrich) for F-Actin staining for 1 hour (1:250 dilution) together with the aforementioned secondary antibody, followed by 10 minutes incubation with DAPI staining solution (ab228549, Abcam) for nuclei staining dissolved in PBS (1:1000 dilution).
Images were taken using a ZEISS LSM 900 in wide-field or in the LSM confocal detection mode (ML228 experiment), using Zen 3.1. Fluorescence readouts were obtained at excitation/emission: 353/465 nm (DAPI), 493/517 nm (Collagen-I), 590/618 (F-Actin) and 647/683 nm (DRAQ5) using a Plan-Apochromat 20×/0.8 M27 objective.
Image acquisition and quantification were performed by Incucyte SX5 (Sartorius) using software version 2022B Rev2. A standard scan was done for 9 images per well using 20× objective, 2 optical modules (green at excitation/emission of 453-485 nm/494-533 nm in 300 msec acquisition time, and near-IR at excitation/emission of 648-674 nm/685-756 nm in 400 msec acquisition time, including Phase channel) following immunofluorescence protocol. For the image analysis, 2-6 replicates per condition were used. Using the Basic Analyzer mode, “Phase Object Confluence (%)” was acquired using the Phase channel. This measurement is the percentage of the image area occupied by cells. “Total Collagen-I Integrated Intensity Per Image (GCU×μm^2/Image)” was acquired using the green optical module. GCU stands for Green calibrated Unit, while this measurement is the total sum of the Collagen-I objects' fluorescent intensity in the image. “#Cells (Per image)” was acquired by the near-IR optical module. […]

## c1ccc(-c2ccc(CNc3nc(-c4ccccn4)nnc3-c3ccccc3)cc2)cc1 [ML228, N-([1,1′-Biphenyl]-4-ylmethyl)-6-phenyl-3-(2-pyridinyl)-1,2,4-triazin-5-amine]
5 μM ML228, 48 hours, p<0.05
  Collagen type 1 normalized to cells confluence vs untreated cells: reduction
48 hours, one-way ANOVA, p<0.05 to p<0.0001
  concentrations with significant increase of Collagen type 1 normalized to cells confluence vs untreated cells: 0.31 to 2.5 µM

From patent US20250171821A1, “HIF-1 ACTIVATORS AND USES THEREOF” (Ramot at Tel-Aviv University Ltd., priority 2022, published 2025)
